Results taken from patent publication US20110224210A1, “NOVEL BIS-AMIDES AS ANTI-MALARIAL AGENTS” (priority 2008, published 2011).

Each molecule was assayed on P. falciparum K1 (strain resistant to chloroquine and pyrimethamine), erythrocytic stages (assay: Plasmodium falciparum in vitro assay, [3H] hypoxanthine incorporation). Details: Plasmodium falciparum, K1, P. falciparum strain K1; [3H] hypoxanthine incorporation; read-out: IC50 (nM) on K1.
Assay type: cell-based
Procedure, shortened: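 Chloroquine/pyrimethamine-resistant K1 erythrocytic cultures (2.5% haematocrit, 0.3% parasitaemia, hypoxanthine-free RPMI with Albumax) exposed to seven doubling dilutions at 37 °C under low O2.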

Row | Compound | IC50
1 | COCCN(C)C(=O)[C@H](Cc1ccccc1)N(Cc1ccc(-c2ccccn2)cc1)C(=O)C=Cc1ccc(OC)nc1 [Example 87, (S)-N-{1-[(2-Methoxy-ethyl)-methyl-carbamoyl]-2-phenyl-ethyl}-3-(6-methoxy-pyridin-3-yl)-N-(4-pyridin-2-yl-benzyl)-acrylamide] | < 8 nM
2 | COCCN(C)C(=O)[C@H](Cc1ccccc1)N(Cc1ccc(N2CCOCC2)nc1)C(=O)C=Cc1ccc(C)cc1 [Example 158, (S)-N-{1-[(2-Methoxy-ethyl)-methyl-carbamoyl]-2-phenyl-ethyl}-N-(6-morpholin-4-yl-pyridin-3-ylmethyl)-3-p-tolyl-acrylamide] | 24 nM
3 | CN(CCN(C)C(=O)[C@H](Cc1ccccc1)N(Cc1ccc(-c2ccccn2)cc1)C(=O)C=Cc1ccc(C(F)(F)F)cc1)Cc1ccoc1 [Example 222, (S)-N-(1-{[2-(Furan-3-ylmethyl-methyl-amino)-ethyl]-methyl-carbamoyl}-2-phenyl-ethyl)-N-(4-pyridin-2-yl-benzyl)-3-(4-trifluoromethyl-phenyl)-acrylamide] | 13 nM
4 | CN(C)C1CCN(C(=O)C(Cc2ccnn2C)N(Cc2ccc(-c3ccccn3)cc2)C(=O)C=Cc2ccc(C(F)(F)F)cc2)CC1 (racemic) [Example 142] | 460 nM
5 | CN(C)C1CCN(C(=O)C(Cc2cnn(C)c2)N(Cc2ccc(-c3ccncc3)cc2)C(=O)C=Cc2ccc(C(F)(F)F)cc2)CC1 (racemic) [Example 139] | 155 nM
6 | COCCN(C)C(=O)[C@H](Cc1ccccc1)N(Cc1ccc(N2CCOCC2)cc1)C(=O)C=Cc1cc(C)nn1C [Example 59, (S)-3-(2,5-Dimethyl-2H-pyrazol-3-yl)-N-{1-[(2-methoxy-ethyl)-methyl-carbamoyl]-2-phenyl-ethyl}-N-(4-morpholin-4-yl-benzyl)-acrylamide] | 121 nM
7 | COCCN(C)C(=O)[C@H](Cc1ccccc1)N(Cc1ccc(-c2ccccn2)cc1)C(=O)C=Cc1ccc(Cl)nc1 [Example 85, (S)-3-(6-Chloro-pyridin-3-yl)-N-{1-[(2-methoxy-ethyl)-methyl-carbamoyl]-2-phenyl-ethyl}-N-(4-pyridin-2-yl-benzyl)-acrylamide] | 31 nM
8 | CN(CCN(C)C(=O)[C@H](Cc1ccccc1)N(Cc1ccc(N2CCOCC2)cc1)C(=O)C=Cc1ccc(C(F)(F)F)cc1)Cc1nccs1 [Example 265, (S)-N-(1-{Methyl-[2-(methyl-thiazol-2-ylmethyl-amino)-ethyl]-carbamoyl}-2-phenyl-ethyl)-N-(4-morpholin-4-yl-benzyl)-3-(4-trifluoromethyl-phenyl)-acrylamide] | 36 nM
9 | COCCN(C)C(=O)[C@H](Cc1ccccc1)N(Cc1ccc(N2CCOCC2)nc1)C(=O)C=Cc1ccc(C(F)(F)F)cc1 [Example 157, (S)-N-{1-[(2-Methoxy-ethyl)-methyl-carbamoyl]-2-phenyl-ethyl}-N-(6-morpholin-4-yl-pyridin-3-ylmethyl)-3-(4-trifluoromethyl-phenyl)-acrylamide] | 10 nM
10 | O=C([C@H](Cc1ccccc1)N(Cc1ccc(N2CCOCC2)nc1)C(=O)C=Cc1ccc(C(F)(F)F)nc1)N1CCC(Cc2ccccc2)CC1 [Example 144, (S)-N-[1-Benzyl-2-(4-benzyl-piperidin-1-yl)-2-oxo-ethyl]-N-(6-morpholin-4-yl-pyridin-3-ylmethyl)-3-(6-trifluoromethyl-pyridin-3-yl)-acrylamide] | 24 nM
11 | COCCN(C)C(=O)[C@H](Cc1ccccc1)N(Cc1ccc(N2CCN(C(C)=O)CC2)cc1)C(=O)C=Cc1ccn(C)n1 [Example 103, (S)-N-[4-(4-Acetyl-piperazin-1-yl)-benzyl]-N-{1-[(2-methoxy-ethyl)-methyl-carbamoyl]-2-phenyl-ethyl}-3-(1-methyl-1H-pyrazol-3-yl)-acrylamide] | 438 nM
12 | CC(=O)N1CCN(c2ccc(CN(C(=O)C=Cc3ccc(C(F)(F)F)cc3)[C@@H](Cc3ccccc3)C(=O)N(C)CCOCc3ccccc3)cc2)CC1 [Example 181, (S)-N-[4-(4-Acetyl-piperazin-1-yl)-benzyl]-N-{1-[(2-benzyloxy-ethyl)-methyl-carbamoyl]-2-phenyl-ethyl}-3-(4-trifluoromethyl-phenyl)-acrylamide] | 10 nM
